8 compounds from ChEMBL document CHEMBL1128087, “Novel substituted indolocarbazoles as potent and selective inhibitors of protein kinase C” (Bioorg Med Chem Lett, 1995) can be followed below.

The target in this assay is cAMP-dependent protein kinase (PKA) (Homo sapiens) (UniProt P22694+P17612+P22612). Nature of the assay: In vitro inhibitory activity against Protein Kinase A at a concentration of 10 uM. Type of assay: protein assay.
For orientation: inhibition means the relative decrease from the control value, in per cent. Higher therefore signals strong suppression. `O=C(CCn1c2ccccc2c2c3c(c4c5ccccc5[nH]c4c21)C(=O)NC3)NCCN1CCOCC1` came in with an inhibition of 49%.
In the case of `COC(=O)c1cc(C(=O)c2cc(NC(=O)CCn3c4ccccc4c4c5c(c6c7ccccc7[nH]c6c43)C(=O)NC5)cn2C)cn1C` it was 43%; in that of `CN(C)CCCNC(=O)CCn1c2ccccc2c2c3c(c4c5ccccc5[nH]c4c21)C(=O)NC3`, 41%.
As for `COC(=O)c1cc(C(=O)c2cc(C(=O)c3cc(NC(=O)CCn4c5ccccc5c5c6c(c7c8ccccc8[nH]c7c54)C(=O)NC6)cn3C)cn2C)cn1C`, the figure is 40%.
In the case of `O=C(CCn1c2ccccc2c2c3c(c4c5ccccc5[nH]c4c21)C(=O)NC3)NCC1CCOC1` (stereo not drawn) it was 41%; in that of `COC(=O)c1cc(NC(=O)CCn2c3ccccc3c3c4c(c5c6ccccc6[nH]c5c32)C(=O)NC4)cn1C`, 40%.
Compound `CN1CCCC1CCNC(=O)CCn1c2ccccc2c2c3c(c4c5ccccc5[nH]c4c21)C(=O)NC3` (stereo not drawn) showed an inhibition of 25%.
In the case of `O=C(CCn1c2ccccc2c2c3c(c4c5ccccc5[nH]c4c21)C(=O)NC3)NCCN1CCCCC1` it was 42%.
